Measured values published in PMC8162438, “Cancer cell-selective modulation of mitochondrial respiration and metabolism by potent organogold(III) dithiocarbamates” (Chemical Science, 2020).

How the values were obtained:
MDA-MB-231 [1] = assay: Cell cycle analysis by flow cytometry (PI); format: cell-based; conditions: MDA-MB-231, 0.1 μM
Method: The effect of 2a on cell cycle was studied by flow cytometry. We observed a time-dependent increase in G0/G1 cell cycle population over 24–72 h period. […] There are several small molecule drug candidates in clinical trials as inhibitors of CDK4/6 and induce G1 cell cycle arrest.[107–110] Thus, our finding is relevant for the design of gold based therapies for refractory tumors such as TNBC.[107–110] After 24 h, a 10% increase can be seen for G1 cell population as well as a 6% decrease in S phase in comparison to the control (Fig. 12B and C). […] The mitochondria control cellular ATP production, it is therefore possible that inhibition of mitochondria respiration and consequently low ATP levels lead to cell cycle arrest.[112–114] […]
with a final volume of 100 µL and incubated overnight at 37 °C. Compound 2a was prepared as a stock in DMSO and diluted to a working concentration of 200 µM with Seahorse XF96 assay buffer and then subsequently serial diluted by 3x to achieve multiple concentrations. The assay was performed using a pneumatic injection method of 2a, with the final injection concentrations of 0.1, 1, 3 , and 11 µM. This was followed by injection of oligomycin (1.5 µM), FCCP (0.6 µM) and rotenone/ antimycin A (0.5 µ M). […]
supplementary information of the following papers. 15-16
The Seahorse XF96 analysis for MRC5 was performed in an identical manner to MDA-MB-231 except that MRC5 cells were seeded at a density of 50,000 cells/well and an FCCP injection concentration of 0.6 µ M was used.
Cell Cycle Analysis. MDA-MB-231 cells were seeded at a density of 2 x 10^5 cells/well in a 6 well clear bottom plate with a final media volume of 2 mL and allowed to adhere overnight 37 °C. Compound 2a was prepared fresh as a stock in DMSO and added at a final concentration of 0.1 µM with a final volume of 2.5 mL. […] These solutions were stored at 4 °C until ready for analysis. […] The samples were then analyzed with FACS. […]

MDA-MB-231 [2] = assay: Immunoblotting of apoptosis proteins; format: cell-based
Description: Apoptosis is a common cell death pathway for chemotherapeutics which can be characterized by distinct morphological features and biochemical mechanisms.[88,89] Apoptosis occurs normally in healthy cells to maintain a healthy population of cells during aging or development of tissues. Some transition metal-based drugs can trigger apoptosis due to […] of p53 dependant pathway (a tumour suppressor gene).[90,91] Populations of apoptotic cells can be determined by containing cells with Annexin V and PI.[92,93] Cells undergoing apoptosis contain ample amount of phosphatidylserine (PS) which can be bound by Annexin V. The Annexin is then labelled with FITC, a green fluorogenic dye which can be visualized by fluorescence activated cell sorting (FACS). […]
positive control. When ready for analysis, the media were removed and the wells washed with 5 mL of PBS. […] The cells were resuspended in 2 mL of fresh media, counted, and reconstituted to a concentration of 1 x 10^5 cells/mL. […]
Compound 2a was prepared as a stock in DMSO and added to the respective wells at the specified concentrations of 0.1, 1, and 10 µM and treated for 12 h. […] The samples were cooled and stored at −20 °C until ready for use. […] Immuno complexes were detected with the ECL detection reagent (BioRad) and analyzed using a BioRad imager with a chemiluminescence filter. […]

C[N+](C)=C1[S][Au-2]2([S]1)[c]1ccccc1Cc1cccc[n+]12.F[P-](F)(F)(F)(F)F (centres unmarked) [2a]
Decrease in S phase versus control (MDA-MB-231 [1]; 24 h): 6%
Increase in G1 cell population versus control (MDA-MB-231 [1]; 24 h): 10%
G1 phase change over 72 h (MDA-MB-231 [1]; 72 h): significant increase in G1 phase
Cleaved PARP expression (immunoblot) (MDA-MB-231 [2]; MDA-MB-231, 0.1, 1, 10 µM, 12 h): unaltered protein expression
Caspase 3 and cleaved caspase 3 expression (immunoblot) (MDA-MB-231 [2]; MDA-MB-231, concentration dependent (0.1, 1, 10 µM, 12 h)): upregulated
